One assay has as its system LIV21. In words: Nuclear translocation of LIV21 in MCF-7 cells (Western blotting of extracts/fractions, immunocytochemistry). The format is cell-based, human. The procedure: The results obtained by flow cytometry led the inventor to study, in parallel, the expression of LIV21 in nuclear extracts prepared after 12 h, 24 h, 48 h and 72 h of TPA treatment (FIG. 16A). […] It lasts until the reinitiation of the cell cycle observed at 72 h.
However, it is interesting to note that the expression of LIV21 already begins from 1 h of treatment in certain cells, since they are not synchronous.
The effect of the selective inhibition of the activity of PKC∈ on the nuclear translocation of LIV21 was studied by immunocytochemistry. These experiments were carried out on nontreated cultures or cultures treated for 12 h with TPA at 25 nM or with the peptide at two different concentrations, 1 and 2 μM (FIG. 20).
(§1) The protein extracts are heated at 80° C. for 5 minutes in a Laemmli buffer (pH 7.4, 0.06 M Tris, 3% SDS, 10% glycerol, 1 nM PMSF, β-mercaptoethanol). The migration is carried out by SDS-PAGE (sodium dodecyl sulfate-polyacrylamide gel electrophoresis). 10 to 20 μg of proteins migrate in a 12% polyacrylamide gel for 1 h under denaturing conditions (migration buffer: 25 mM Tris base, 192 mM glycine, 1% SDS, pH 8.3). The proteins are then transferred onto a nitrocellulose membrane (Schleicher & Schuell) for one hour by liquid transfer, in a transfer membrane (25 mM Tris, 192 mM glycine, 20% methanol, pH 8.3). The membranes, saturated in PBS-0.1% Tween-0.1% Triton X100-5% skimmed milk for one hour, are brought into contact with the primary antibody diluted in PBS-0.1% Tween-0.1% Triton X100-1% milk at ambient temperature with gentle agitation for one hour to two hours. After washing, the peroxidase-coupled secondary antibody is incubated with the membranes for 1 h. Revelation is carried out by means of a chemiluminescence reaction using the ECL kit according to the supplier's protocol (Amersham).
On the technique in general: Immunoblotting shows a protein as a band on a membrane.

The subject of a further assay is PKC∈. The assay is described as follows: PKC∈ expression in MCF-7 cells (Western blotting, immunofluorescence). In kind it is cell-based, human. The conditions noted are these: TPA 25 nM. The procedure: Western blotting study: Given that the protein sequence of LIV21 has putative PKC phosphorylation sites, including two specific for PKC∈, the inventor tested the variation in the expression of this PKC as a function of the duration of TPA treatment. […] The expression of PKCzeta (PKCζ) is used as an internal control since it is not sensitive to TPA.
as §1, with “Revelation is carried out by means of a chemiluminescence reaction using the ECL kit according to the supplier's protocol (Amersham).” left out

The next assay has as its system MCF-7 line. The conditions noted are these: literature description; cited from earlier work.
Assay [1] has as its system MCF-7 cells. The assay is described as follows: Cell growth monitoring (counting) and morphology of MCF-7 cultures with or without TPA. The conditions noted are these: TPA 25 nM. The format is cell-based, human. As to the method: It has been described in the literature that TPA induces the arrest of proliferation and the differentiation of tumor cells of the MCF-7 line. In order to validate the culture conditions, the cell growth was monitored (by counting) beforehand over three days of culture in the presence or absence of TPA at a concentration of 25 nM (FIG. 14).
However, in the period of time over which the cells were studied, the secretory phenotype (appearance of granules and of secretory canaliculi) was not observed.

Assay [2] relates to MCF-7 cells. In words: FACS analysis of cell cycle phases in TPA-treated MCF-7 cells. In kind it is cell-based, human. As to the method:
However, without any further addition of TPA, the number of cells in the S phase increases again so as to return to the initial state at 72 h of treatment. G2/M phase: The number of cells in the G2/M phase increases from the beginning of the treatment, with a maximum observed at 12 hours (FIG. 15B). G0/G1 phase: The number of cells in the G0/G1 phase is at a minimum at 6 hours and at a maximum at 24 hours (FIG. 15C).
A maximum of cells in the S phase are therefore observed in the early periods of the kinetics (0 h to 6 h), a maximum of cells in the G2/M phase is observed at 12 h and, finally, a maximum of cells in the G0/G1 phase is observed at 24 h. Finally, without any further addition of TPA, the cells return to the S phase at 72 h.
In general terms: In flow cytometry, cells or beads pass a laser one at a time.

For “EAVSLKPT (listed as Homo sapiens) [PKC∈-inhibiting peptide]”, the “nuclear translocation of LIV21 (immunocytochemistry)” value in the assay on LIV21 (peptide 1 μM, 12 h) was “absence of nuclear translocation of LIV21”; in the assay with LIV21 (peptide 2 μM, 12 h, compared with TPA 25 nM), “effect identical to that of TPA”; with LIV21 (peptide 2 μM, 12 h, compared with TPA 25 nM, listed as PKCε-inhibiting peptide) it was “same effectiveness as”. In addition, the “LIV21 expression profile in cytoplasmic and nuclear fractions (cell fractionation, Western blot)” value in the assay on LIV21 (peptide 2 μM, 12 h, compared with TPA-treated cultures) was “same LIV21 expression profile”.

Turning to `CCCCCCCCCCCCCC(=O)O[C@@H]1[C@@H](C)[C@@]2(O)[C@@H](C=C(CO)C[C@]3(O)C(=O)C(C)=C[C@@H]23)[C@H]2C(C)(C)[C@]12OC(C)=O` [TPA], the “PKC∈ localization (immunofluorescence)” value in the assay on PKC∈ (12 h) was “disappears from the cytoplasm”. Further, the “PKC∈ expression (Western blotting, total extracts)” value with PKC∈ (as a function of duration of treatment) is recorded as “decreases from 30 min”. Further, the “proliferation of cells of human mammary tumor lines such as MCF-7” value with MCF-7 line was “drastically inhibits the proliferation”. Besides, the “colocalization of PML and LIV21 (double labeling)” value with LIV21 (24 h of TPA treatment (25 nM)) was “colocalized in the nuclei”. Besides, the “time of maximum nuclear translocation of LIV21 (immunocytochemistry)” value with LIV21 (TPA 25 nM) amounted to 12 h. The “anti-LIV21 immunoreactivity in nuclear extracts (Western blot)” value in the assay with LIV21 (TPA 25 nM, 12 h, 24 h, 48 h and 72 h) was “maximum anti-LIV21 immunoreactivity was observed from 12 h, was maintained up to 48 h”. Besides, the “cell morphology / differentiation” value in the assay with MCF-7 cells [1] is listed as “rapidly acquire characteristics of differentiated mammary gland cells”. Also, the “number of cells in control cultures relative to treated cultures” value with MCF-7 cells [1] (after 3 days of treatment) is “twice as many cells”. The “cell proliferation (cell counts)” value in the assay on MCF-7 cells [1] (three days of culture) is reported as “clearly inhibits proliferation”. In the assay with MCF-7 cells [2] (TPA 25 nM, single addition), the “time of optimal reduction of the number of cells in the S phase” value is on record as 12 h. In the assay with MCF-7 cells [2] (TPA treatment), the “time of maximum number of cells in the G0/G1 phase” value was found to be 24 h, the “time of maximum number of cells in the G2/M phase” value came to 12 h and the “time of minimum number of cells in the G0/G1 phase” value turned out to be 6 h. For the same compound, in the assay with MCF-7 cells [2] (after single addition of TPA), the “time at which cells reinitiate the cell cycle” value amounted to 72 h.

(Values after US8039439B2, “Cellular cycle anomalies for targeting oncology and neurodegeneration” (priority 2005, dated 2011).)
